In one data set the test system is traumatic brain injury. To be noted: two large U.S. studies; cited from earlier work.
For a further data set, the system named is postconcussive symptoms. To be noted: patients with TBI; cited from earlier work.
For another data set, the system named is depression. As to the kind of experiment: Clinical experience with ketamine treatment for depression. To be noted: extensive clinical experience.
For data set [1], the system named is nerves involved in polyneuropathy. Description: Polyneuropathy treatment: ketamine administration followed by infrared light, nerve conduction. To be noted: then 810 nm and 980 nm light, 10.5 watts, continuous wave, 10 minutes, about 9-10 treatments. Format: in vivo, human. From the text: In one embodiment, the inventive method can be employed to treat an exemplary case of polyneuropathy. In this example, a neurologist or other medical professional can conduct an EMG study (or other diagnostic procedure) to determine which nerve is involved, locate the distal portion of the nerve and the path through the body. Then, after the appropriate ketamine administration, as part of 910, the operator configures the system. For example, this can be accomplished by setting the wattage to 10.5 watts, setting the wavelengths to 810 nm and 980 nm, specifying continuous wave, setting duration at 10 minutes, and determining total joules to be about 6000. The operator would then activate the applicator over the nerve to be treated. Maintaining proximity and applying active circular techniques, the operator would move the applicator over the area of involvement, tracing the actual nerve or nerves involved. This might entail, for instance, moving from the hip down the leg to the foot, or from the hand up the arm to the shoulder. The active sweeping pattern is maintained throughout, while monitoring the temperature, light, duration and patient as well. The treatment is then reviewed with the patient and follow-up treatments are scheduled (usually approximately 9-10 treatments for this condition). […]

Data set [2] concerns depressive symptoms and suicidal ideation. To be noted: single infusion; cited from earlier work.
The subject of the next data set is tau protein. The settings on record: transgenic mice overexpressing tau, cited from earlier work.
A further data set deals with post-concussive syndrome. To be noted: double-blind, placebo-controlled; cited from earlier work.

Results on 5 molecules are retold here after patent US10905897B2, “Synergistic treatment methodologies using light therapy” (Neuro-Laser Foundation, Inc., priority 2016, dated 2021).

As for `C[N+](C)(C)CCOP(=O)(O)OP(=O)([O-])OC[C@H]1O[C@@H](n2ccc(N)nc2=O)[C@H](O)[C@@H]1O` [Citicholine], the “benefit in TBI” value with traumatic brain injury is “failed to demonstrate significant benefit”. Turning to `C[S+](CC[C@H](N)C(=O)O)C[C@H]1O[C@@H](n2cnc3c(N)ncnc32)[C@H](O)[C@@H]1O` (some centres unmarked) [SAMe, S-adenosylmethionine], the “improvement in clinical scores of postconcussive symptoms” value in the data set with postconcussive symptoms was 77%. For the molecule `CNC1(c2ccccc2Cl)CCCCC1=O` (centres unmarked) [ketamine], the “patients treated for depression who see a favorable clinical response” value in the data set with depression is “approximately 80%”. In addition, the “increase in the conduction velocity of the nerves involved” value in data set [1] was 20-30%. Also, in data set [2], the “duration of symptom relief with single infusions” value was 4 to 10 days.

In the case of `[Cl-].[Li+]` [lithium chloride], in the data set with tau protein (dietary lithium chloride), the resulting blood levels is ≤ 0.2 milli-Equivalents per liter. Besides, the “levels of tau protein accumulation upon pathological examination” value in the data set with tau protein is recorded as “significantly decreased”. For the molecule `NC(=O)CN1CCCC1=O` [piracetam, Piracetam], in the data set with post-concussive syndrome, the “symptoms of post-concussive syndrome, including headache and vertigo” value was “improved several symptoms”.
